pIC50: −log10 of the molar value.
Experiments:
Cox-1, Cox-2, Cox-4 mRNA = assay: Quantitative RT-PCR of Cox mRNA; type: cell-based, human; conditions: TEX and primary AML cells, 2.5 μM and 5 μM
Procedure: (§1) FIG. 4. […] (A) Cells from TEX, OCI-AML2 and two primary AML patients were treated with increasing concentrations (2.5 μM and 5 μM) of tigecycline for 36 and 48 hours of tigecycline. Total proteins were extracted and analyzed by western blotting for Cox-1, Cox-2, Cox-4, grp78, XIAP, actin and tubulin. (B) TEX and AML patient cells were treated with increasing concentrations (2.5 μM and 5 μM) of tigecycline. Cox-1, Cox-2, and Cox-4 mRNA expression relative 18S was determined by quantitative RT-PCR. Data is shown as mean±SD. (C) TEX cells were treated with increasing concentrations of tigecycline and chloramphenicol (CAP) for 72 hours. Complex I, II and IV enzyme activity relative to citrate synthase activity was determined as described in materials and methods. (D) Cells from TEX, primary AML patients, and normal donors were treated with increasing concentrations of tigecycline. Mitochondrial membrane potential (ΔΨ) was determined by staining cells with JC-1 dye, and flow cytometry analysis (Red/Green ratio). Reactive oxygen species generation (ROS) was determined by staining with h2-DCFDA and Dihydroethidium (DHE).

[1] = test system: bacterial protein synthesis; conditions: cited from earlier work
[2] = PK study in mice, single dose i.p.; conditions: mouse, in vivo, ip, single dose 50 mg/kg i.p.
XIAP, grp78 = assay: Immunoblotting of cytosolic-ribosome translated proteins; type: cell-based, human; conditions: TEX, OCI-AML2, primary AML cells
Procedure: as §1
Total cell lysates were prepared from cells as described previously^32. […] Protein concentrations were measured by the DC Protein assay. […]

myeloma cell lines = assay: Cell growth and viability, MTS assay, myeloma cell lines; type: cell-based; conditions: 72 hours
Procedure: FIG. 1. […] (A) TEX and (B) M9-ENL1 cells were plated in 96-well plates and drugs were added to the wells (5 μL per well) for final concentrations of 10 μM (shown) and 1 μM. Cell growth and viability was measured at 48 hours (M9-ENL-1) and 72 hours (TEX) by MTS assay. Cell viability is shown for each compound as a percent of cells treated with DMSO alone. (C) Leukemia, (D) myeloma, and (E) solid tumor cell lines were seeded in 96-well plates and then treated with increasing concentrations of tigecycline. Cell growth and viability was measured at 72 hours by MTS assay. Cell viability is expressed as mean percentage plus or minus SD (n=3) relative to vehicle-treated cells. […] Cell viability was measured at 72 hours by MTS assay. Cell viability is expressed as mean percentage plus or minus SD (n=3) relative to vehicle-treated cells.
Human leukemia (OCI-AML2, HL60, U937) cell lines were maintained in RPMI 1640 medium. Myeloma (LP-1, KMS11, 8226, JJN3, OP-M2) cell lines were maintained in Iscove's media. […]
Cell growth and viability was assessed by the MTS assay (Promega, Madison, Wis.) according to the manufacturer's instructions. Apoptosis and cell death was measured by Annexin V-fluroscein isothiocyanate (FITC; Biovision Research Products, Mountain View, Calif.), propidium iodide staining and flow cytometry according to the manufacturer's instructions and as previously described^30.

CN(C)c1cc(NC(=O)CNC(C)(C)C)c(O)c2c1C[C@H]1C[C@H]3[C@H](N(C)C)C(O)=C(C(N)=O)C(=O)[C@@]3(O)C(O)=C1C2=O [tigecycline]
mRNA expression of Cox-1, Cox-2 over Cox-4 (Cox-1, Cox-2, Cox-4 mRNA): preferential increased mRNA expression | inhibition of bacterial protein synthesis, fold greater than minocycline ([1]; relative to minocycline): 3 fold | inhibition of bacterial protein synthesis, fold greater than tetracycline ([1]; relative to tetracycline): 20 fold | Tmax [2]: ~0.5 h | half-life [2]: ~4.5 h | expression of XIAP or grp78 (XIAP, grp78): did not alter | pIC50 (myeloma cell lines): < 5.00

Source: US20140221301A1, “COMBINATION TREATMENT FOR CANCER” (priority 2011, published 2014)
